# Assay results reported in paper PMC9471048, “The signaling and selectivity of α‐adrenoceptor agonists for the human α2A, α2B and α2C‐adrenoceptors and comparison with human α1 and β‐adrenoceptors” (Pharmacology Research & Perspectives, 2022).
# Read-outs that look alike come from different tables or passages of the source.
# Experiments:
# [1] = system: parent CHO cells (no transfected receptor); parameters: method as in PMID 34355529; conditions: non‐α‐mediated mechanism; cited from earlier work
# [2] = molecular target: T1, human α2C‐adrenoceptor (Homo sapiens, UniProt P18825)
# T1 sequence (P18825 1-462): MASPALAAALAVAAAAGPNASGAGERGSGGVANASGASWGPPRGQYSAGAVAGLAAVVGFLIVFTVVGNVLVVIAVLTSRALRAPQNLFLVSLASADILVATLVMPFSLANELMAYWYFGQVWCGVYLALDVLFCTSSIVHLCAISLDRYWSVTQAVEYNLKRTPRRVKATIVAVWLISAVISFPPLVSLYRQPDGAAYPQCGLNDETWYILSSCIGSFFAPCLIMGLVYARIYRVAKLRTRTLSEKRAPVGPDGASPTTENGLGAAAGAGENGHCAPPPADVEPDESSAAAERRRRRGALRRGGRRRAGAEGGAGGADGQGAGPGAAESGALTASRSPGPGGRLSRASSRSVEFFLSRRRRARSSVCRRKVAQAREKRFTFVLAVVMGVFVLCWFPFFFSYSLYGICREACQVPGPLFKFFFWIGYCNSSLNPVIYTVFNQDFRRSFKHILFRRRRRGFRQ
# [3] = molecular target: T2, human α2A‐adrenoceptor (Homo sapiens, UniProt P08913); assay: 3H‐rauwolscine whole cell binding in CHO‐α2A cells; parameters: expressed in transfected cells; host or cells: CHO-K1 with CRE-SPAP reporter
# T2 sequence (P08913 1-465): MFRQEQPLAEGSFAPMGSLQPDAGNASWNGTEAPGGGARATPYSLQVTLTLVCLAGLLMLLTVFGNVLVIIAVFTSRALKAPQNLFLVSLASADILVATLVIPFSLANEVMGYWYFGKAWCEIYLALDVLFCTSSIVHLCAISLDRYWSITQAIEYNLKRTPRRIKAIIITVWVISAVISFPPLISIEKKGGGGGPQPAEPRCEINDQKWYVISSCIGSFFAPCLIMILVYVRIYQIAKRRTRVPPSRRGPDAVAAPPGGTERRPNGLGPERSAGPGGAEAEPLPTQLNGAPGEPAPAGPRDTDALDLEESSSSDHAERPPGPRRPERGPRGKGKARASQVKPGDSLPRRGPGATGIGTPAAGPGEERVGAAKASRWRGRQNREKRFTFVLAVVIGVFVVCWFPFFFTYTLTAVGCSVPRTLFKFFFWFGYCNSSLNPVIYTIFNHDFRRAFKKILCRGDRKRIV
# [4] = molecular target: T2, human α2A‐adrenoceptor
# [5] = molecular target: T1, human α2C‐adrenoceptor; assay: ERK1/2‐phosphorylation in CHO‐α2C cells; type: cell-based; parameters: expressed in transfected cells; host or cells: CHO-K1 with CRE-SPAP reporter
# [6] = molecular target: T1, human α2C‐adrenoceptor; assay: 3H‐rauwolscine whole cell binding in CHO‐α2C cells; parameters: expressed in transfected cells; host or cells: CHO-K1 with CRE-SPAP reporter
# [7] = molecular target: T2, human α2A‐adrenoceptor; assay: ERK1/2‐phosphorylation in CHO‐α2A cells; type: cell-based; parameters: expressed in transfected cells; host or cells: CHO-K1 with CRE-SPAP reporter
structure (smiles),measurement,setting,value
Cc1cc(C(C)(C)C)c(O)c(C)c1CC1=NCCN1 [Oxymetazoline],ERK1/2‐phosphorylation agonist response in parent cells,[1],stimulate ERK1/2‐phosphorylation agonist responses
Cc1cccc(C)c1N=C1NCCCS1 [Xylazine],"% inhibition, CRE‐SPAP (with forskolin)",[2],81.8 ± 3.6%
same,IC50,[2],0.178 µM
same,"Log EC50 (Gs), CRE‐SPAP (without forskolin)",[2],No response
same,Log efficacy ratio (KD/IC50),[2],1.53
same,Kd,[3],11.5 µM
same,Kd,"[3]; Log KD, CHO‐α2A",11.5 µM
same,EC50,[4],8.51 µM
same,IC50,[4],0.288 µM
same,"Log EC50 (Gs), CRE‐SPAP (without forskolin)",[4],No response
same,Log efficacy ratio (KD/IC50),[4],1.60
same,"% 10 μM PDBu, ERK1/2‐phosphorylation",[5],168.2 ± 22.8%
same,EC50,[5],0.0724 µM
same,Kd,[6],6.03 µM
same,Selectivity ratio α2A vs α2C (higher affinity for α2C),[6],1.9
same,Selectivity ratio α2B vs α2C (higher affinity for α2C),[6],1.0
same,Kd,"[6]; Log KD, CHO‐α2C",6.03 µM
same,"% 10 μM PDBu, ERK1/2‐phosphorylation",[7],128.3 ± 15.7%
same,EC50,[7],0.0302 µM
Cc1cccc([C@H](C)c2cnc[nH]2)c1C [Dexmedetomidine],"% inhibition, CRE‐SPAP (with forskolin)",[2],73.4 ± 4.4%
same,"Log EC50 (Gs), CRE‐SPAP (without forskolin)",[2],No response
same,IC50,"[2]; Log IC50 (Gi), CRE‐SPAP (with forskolin)",0.000692 µM
same,higher affinity for α2 than α1‐adrenoceptor subtypes,[3],100 fold
same,"% 3 μM forskolin, CRE‐SPAP (without forskolin)",[4],23.6 ± 2.7%
same,"% 10 μM PDBu, ERK1/2‐phosphorylation",[5],153.0 ± 18.5%
same,EC50,"[5]; read-out: Log EC50, ERK1/2‐phosphorylation (converted)",0.000263 µM
same,Kd,[6]; read-out: Log KD (converted),0.0302 µM
same,Kd,"[6]; read-out: Log KD, CHO‐α2C (converted)",0.0302 µM
same,"% 10 μM PDBu, ERK1/2‐phosphorylation",[7],138.5 ± 15.4%
Nc1cc(Cl)c(N=C2NCCN2)c(Cl)c1 [Para‐amino‐clonidine],"% inhibition, CRE‐SPAP (with forskolin)",[2],82.3 ± 2.2%
same,"Log EC50 (Gs), CRE‐SPAP (without forskolin)",[2],No response
same,"Log IC50 (Gi), CRE‐SPAP (with forskolin)",[2],−8.09 ± 0.07
same,Log efficacy ratio (KD/IC50),[2],1.78
same,Log KD (binding),[3],−6.35
same,"Log KD, CHO‐α2A",[3],−6.35 ± 0.03
same,"% 3μM forskolin, CRE-SPAP (without forskolin)",[4],12.9 ± 4.1%
same,"% 3 μM forskolin, CRE‐SPAP (without forskolin)",[4],37.6 ± 4.0%
same,"% inhibition, CRE-SPAP (with forskolin)",[4],67.5 ± 4.8%
same,"Log EC50 (Gs), CRE-SPAP (with forskolin)",[4],-6.29 ± 0.32
same,"Log EC50 (Gs), CRE‐SPAP (with forskolin)",[4],−6.81 ± 0.15
same,"Log EC50 (Gs), CRE‐SPAP (without forskolin)",[4],−6.55 ± 0.10
same,"Log IC50 (Gi), CRE‐SPAP (with forskolin)",[4],−8.74 ± 0.12
same,"% 10 μM PDBu, ERK1/2‐phosphorylation",[5],132.6 ± 16.1%
same,"Log EC50, ERK1/2‐phosphorylation",[5],−8.68 ± 0.13
same,Log KD,[6],−6.31
same,"% 10 μM PDBu, ERK1/2‐phosphorylation",[7],141.9 ± 10.6%
same,"Log EC50, ERK1/2‐phosphorylation",[7],−9.58 ± 0.12
